We go through 15 compounds from patent US6479666B2, “Phenyl-keto-imidazolidine thioamide derivatives” (Hoffman-La Roche Inc., priority 2001, dated 2002).

The test system of data set [1] is cynomolgus monkeys (Macaca fascicularis) challenged with Ascaris suum antigen. As to the kind of experiment: Acute airway inflammation in the atopic primate. To be noted: p.o., 2 hours prior to antigen challenge; lavage at 24 hour after A. suum antigen challenge. The class given is in vivo. Here is the method: Example 4. Acute airway inflammation in the atopic primate.
Airway inflammation in the monkey was determined using a modification of the protocol described by Turner et al. (Turner et al., 1994). Adult male cynomolgus monkeys (Macaca fascicularis, Hazelton Labs, Denver, Pa.) weighing between 3.6-5.8 kg were used in these studies.
On the day of each experiment the animals were anesthetized with ketamine hydrochloride, 12 mg/kg, and xylazine, 0.5 mg/kg, intubated with a cuffed endotracheal tube (3 mm, Mallinckrodt Medical, St. Louis, Mo.), then seated in an upright position in a specially designed Plexiglass chair (Plas-Labs, Lansing, Mich.). The endotracheal tube was connected to a heated Fleisch pneumotachograph. Airflow was measured via a Validyn differential pressure transducer (DP 45-24) that was attached to the pneumotachograph. Transpulmonary pressure was measured via a second Validyne transducer (DP 45-24) connected between a sidearm of the tracheal cannula and a 18-gauge intrapleural needle inserted in the intercostal space located below the left nipple. […]
Airway inflammation was induced by exposing the animal to an aerosol of A. Suum extract for 60 sec. […] Airway inflammation was assessed by inserting a pediatric bronchoscope into the airway lumen down to about the 4 or 5th generation bronchi and gently lavaging with 3 X 2 ml aliquots of sterile Hanks Balanced Salt Solution. […]

Data set [2] deals with T1, VLA-4 (α4β1 integrin) binding to immobilized VCAM-1 (Homo sapiens, UniProt P05556+P13612).
T1 construct: followed by 10 μl of Ramos cell-derived VLA-4; endogenous in cells; host or cells: Ramos cells (VLA-4 prepared from them)
T1 sequence (P13612 34-1032): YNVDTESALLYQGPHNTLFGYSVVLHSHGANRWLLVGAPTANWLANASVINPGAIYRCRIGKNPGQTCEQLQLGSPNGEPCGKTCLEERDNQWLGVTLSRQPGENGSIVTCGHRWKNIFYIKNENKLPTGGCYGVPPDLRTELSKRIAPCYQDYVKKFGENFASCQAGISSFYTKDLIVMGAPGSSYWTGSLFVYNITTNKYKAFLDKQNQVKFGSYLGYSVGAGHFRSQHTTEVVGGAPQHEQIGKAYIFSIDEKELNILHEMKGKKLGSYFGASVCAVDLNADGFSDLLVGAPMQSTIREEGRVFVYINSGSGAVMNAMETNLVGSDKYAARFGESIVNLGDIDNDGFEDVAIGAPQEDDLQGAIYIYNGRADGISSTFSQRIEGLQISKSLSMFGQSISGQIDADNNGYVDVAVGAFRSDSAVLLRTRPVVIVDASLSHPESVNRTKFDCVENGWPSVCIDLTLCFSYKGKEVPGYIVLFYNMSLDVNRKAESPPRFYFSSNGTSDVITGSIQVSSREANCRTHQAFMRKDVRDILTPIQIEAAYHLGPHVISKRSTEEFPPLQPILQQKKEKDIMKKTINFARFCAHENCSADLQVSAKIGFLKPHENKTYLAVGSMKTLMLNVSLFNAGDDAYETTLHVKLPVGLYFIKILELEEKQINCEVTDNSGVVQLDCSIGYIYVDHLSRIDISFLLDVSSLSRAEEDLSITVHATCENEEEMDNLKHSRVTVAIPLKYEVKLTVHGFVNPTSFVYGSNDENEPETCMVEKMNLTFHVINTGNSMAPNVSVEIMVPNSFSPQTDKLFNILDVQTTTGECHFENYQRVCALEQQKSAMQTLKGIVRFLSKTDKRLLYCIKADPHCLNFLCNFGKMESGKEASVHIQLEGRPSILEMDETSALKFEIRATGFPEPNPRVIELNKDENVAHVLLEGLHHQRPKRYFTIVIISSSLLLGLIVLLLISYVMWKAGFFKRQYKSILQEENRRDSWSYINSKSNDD
T1 sequence (P05556 21-798): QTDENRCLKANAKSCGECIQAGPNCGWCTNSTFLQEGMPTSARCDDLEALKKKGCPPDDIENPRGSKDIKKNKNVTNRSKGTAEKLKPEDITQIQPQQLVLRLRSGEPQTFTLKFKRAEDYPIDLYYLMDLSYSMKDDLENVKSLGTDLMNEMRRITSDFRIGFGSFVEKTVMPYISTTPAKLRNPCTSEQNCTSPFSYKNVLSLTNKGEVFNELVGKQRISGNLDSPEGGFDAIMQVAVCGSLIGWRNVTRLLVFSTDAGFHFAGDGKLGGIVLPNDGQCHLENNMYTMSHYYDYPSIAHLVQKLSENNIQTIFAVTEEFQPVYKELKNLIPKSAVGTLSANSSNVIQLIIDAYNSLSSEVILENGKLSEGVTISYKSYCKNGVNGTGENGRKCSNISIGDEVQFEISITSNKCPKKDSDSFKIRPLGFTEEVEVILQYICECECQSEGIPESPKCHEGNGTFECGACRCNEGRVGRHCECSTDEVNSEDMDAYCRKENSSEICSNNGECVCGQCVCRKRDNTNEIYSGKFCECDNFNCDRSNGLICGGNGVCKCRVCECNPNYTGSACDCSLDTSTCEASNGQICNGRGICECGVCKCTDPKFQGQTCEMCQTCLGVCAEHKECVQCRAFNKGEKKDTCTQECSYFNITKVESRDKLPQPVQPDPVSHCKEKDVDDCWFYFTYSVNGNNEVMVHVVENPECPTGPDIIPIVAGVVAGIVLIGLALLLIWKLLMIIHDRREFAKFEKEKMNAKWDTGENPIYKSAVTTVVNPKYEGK
As to the kind of experiment: VLA-4/VCAM-1 Screening Assay (solid-phase dual antibody ELISA). To be noted: Ramos cell-derived VLA-4, recombinant human VCAM-1 coated plates. The procedure: 1. VLA-4/VCAM-1 Screening Assay
VLA-4 antagonist activity, defined as ability to compete for binding to immobilized VCAM-1, was quantitated using a solid-phase, dual antibody ELISA. VLA-4 (α4β1 integrin) bound to VCAM-1 is detected by a complex of anti-integrin β1 antibody: HRP-conjugated anti-mouse IgG: chromogenic substrate (K-Blue). Initially, this entailed coating 96 well plates (Nunc Maxisorp) with recombinant human VCAM-1 (0.4 μg in 100 μl PBS), sealing each plate and then allowing the plates to stand at 4° C. for ^˜18 hr. […] On the day of assay, all plates are washed twice with VCAM Assay Buffer (200 μl/well of 50 mM Tris-HCl, 100 mM NaCl, 1 mM MnCl2, 0.05% Tween 20; pH 7.4). Test compounds are dissolved in 100% DMSO and then diluted 1:20 in VCAM Assay Buffer supplemented with 1 mg/mL BSA (i.e., final DMSO=5%). A series of 1:4 dilutions are performed to achieve a concentration range of 0.005 nM−1.563 μM for each test compound. 100 μl per well of each dilution is added to the VCAM-coated plates, followed by 10 μl of Ramos cell-derived VLA-4. These plates are sequentially mixed on a platform shaker for 1 min, incubated for 2 hr at 37° C., and then washed four times with 200 μl/well VCAM Assay Buffer. 100 μl of mouse anti-human integrin β1 antibody is added to each well (0.6 μg/mL in VCAM Assay Buffer+1 mg/mL BSA) and allowed to incubate for 1 hr at 37° C. At the conclusion of this incubation period, all plates are washed four times with VCAM Assay Buffer (200 μl/well). A corresponding second antibody, HRP-conjugated goat anti-mouse IgG (100 μl per well @ 1:800 dilution in VCAM Assay Buffer+1 mg/mL BSA), is then added to each well, followed by a 1 hr incubation at room temperature and concluded by three washes (200 μl/well) with VCAM Assay Buffer. Color development is initiated by addition of 100 μl K-Blue per well (15 min incubation, room temp) and terminated by addition of 100 μl Red Stop Buffer per well. All plates are then read in a UV/V is spectrophotometer at 650 nM. Results are calculated as % inhibition of total binding (i.e., VLA-4+VCAM-1 in the absence of test compound).
Background: In an ELISA, binding on a coated surface is turned into a signal by an enzyme label.

The target of data set [3] is T2, Ramos cells bearing cell-surface VLA-4 (α4β1 integrin) binding to VCAM-1 (Homo sapiens, UniProt P05556+P13612).
T2 construct: Ramos cells bearing cell-surface VLA-4; endogenous in cells; host or cells: Ramos cells (VLA-4); VCAM-1 made in CHO cells
T2 sequence (P13612 34-1032): as the sequence (P13612 34-1032) above
T2 sequence (P05556 21-798): as the sequence (P05556 21-798) above
As to the kind of experiment: Ramos (VLA-4) / VCAM-1 Cell-Based Screening Assay (cell adhesion). The conditions noted are these: Calcein-AM labelled Ramos cells, VCAM-1 coated plates. The procedure:
2. Ramos (VLA-4) / VCAM-1 Cell-Based Screening Assay Protocol
Soluble recombinant human VCAM-1 (mixture of 5- and 7-Ig domain) was purified from CHO cell culture media by immunoaffinity chromatography and maintained in a solution containing 0.1 M Tris-glycine (pH 7.5), 0.1 M NaCl, 5 mM EDTA, 1 mM PMSF, […] NaN3 and 10 μg/mL leupeptin. Calcein-AM was purchased from Molecular Probes Inc.
VLA-4 (α4β1 integrin) antagonist activity, defined as ability to compete with cell-surface VLA-4 for binding to immobilized VCAM-1, was quantitated using a Ramos-VCAM-1 cell adhesion assay. Ramos cells bearing cell-surface VLA-4, were labeled with a fluorescent dye (Calcein-AM) and allowed to bind VCAM-1 in the presence or absence of test compounds. A reduction in fluorescence intensity associated with adherent cells (% inhibition) reflected competitive inhibition of VLA-4 mediated cell adhesion by the test compound. Initially, this entailed coating 96 well plates (Nunc Maxisorp) with recombinant human VCAM-1 (100 ng in 100 μl PBS), sealing each plate and allowing the plates to stand at 4° C. for ^˜18 hr. The VCAM-coated plates were subsequently washed twice with 0.05% Tween-20 in PBS, and then blocked for 1 hr (room temperature) with 200 μl of Blocking Buffer (1% BSA/0.02% thimerosal) to reduce non-specific binding. Following the incubation with Blocking Buffer, plates were inverted, blotted and the remaining buffer aspirated. Each plate was then washed with 300 μl PBS, inverted and the remaining PBS aspirated.
Test compounds were dissolved in 100% DMSO and then diluted 1:25 in VCAM Cell Adhesion Assay Buffer (4 mM CaCl2, 4 mM MgCl2 in 50 mM TRIS-HCl, pH 7.5) (final DMSO=4%). A series of eight 1:4 dilutions were performed for each compound (general concentration range of 1 nM-12,500 nM). 100 μl/well of each dilution was added to the VCAM-coated plates, followed by 100 μl of Ramos cells (200,000 cells/well in 1% BSA/PBS). Plates containing test compounds and Ramos cells were allowed to incubate for 45 min at room temperature, after which 165 μl/well PBS was added. Plates were inverted to remove non-adherent cells, blotted and 300 μl/well PBS added. Plates were again inverted, blotted and the remaining buffer gently aspirated. 100 μl Lysis Buffer (0.1% SDS in 50 mM TRIS-HCl, pH 8.5) was added to each well and agitated for 2 min on a rotary shaking platform. The plates were then read for fluorescence intensity on a Cytofluor 2300 (Millipore) fluorescence measurement system (excitation=485 nm, emission=530 nm).

Molecules are shown by their SMILES. Where a name gives a salt, the structure may show the parent alone.

Turning to `COCCC1(C(=S)N[C@@H](Cc2ccc([N+](=O)[O-])cc2)C(=O)OC)CCCC1` [Example 1, N-[[1-(2-methoxyethyl)cyclopentyl]thioxomethyl]-4-nitro-L-phenylalanine methyl ester], the “number and percent of inflammatory cells present in the lavage fluid relative to vehicle treated control animals” value in data set [1] is “significant decrease”.
As for `COCCC1(C(=S)N[C@@H](Cc2ccc(NC(=O)c3c(Cl)cccc3Cl)cc2)C(=O)O)CCCC1` [Example 3, 4-[[(2,6-dichlorophenyl)carbonyl]amino]-N-[[1-(2-methoxy-ethyl)cyclopentyl]thioxomethyl]-L-phenylalanine], the IC50 in data set [2] is 4 nM; in data set [3] it was 66.5 nM.
For `CC(=O)NCCC1(C(=S)N[C@@H](Cc2ccc(NC(=O)c3c(Cl)cccc3Cl)cc2)C(=O)O)CCCC1` [Example 10, N-[[1-[2-(acetylamino)ethyl]cyclopentyl]thioxomethyl]-4-[[(2,6-dichlorophenyl)carbonyl]amino]-L-phenylalanine], the figures for the IC50 in data set [2] and in data set [3] were 1.5 nM and 33 nM, respectively.
On the same counts, the results for `CNC(=O)NCCC1(C(=S)N[C@@H](Cc2ccc(NC(=O)c3c(Cl)cccc3Cl)cc2)C(=O)O)CCCC1` [Example 11] are 5.6 nM and 42.5 nM.
The like results for `Cc1cccc(Cl)c1C(=S)N[C@@H](Cc1ccc(NC(=O)c2c(Cl)cccc2Cl)cc1)C(=O)O` [Example 18, 4-[[(2,6-dichlorophenyl)carbonyl]amino]-N-[(2-chloro-6-methylphenyl)thioxomethyl]-L-phenylalanine] were, in that order, 0.47 nM and 60 nM.
Turning to `CCc1cccc(C)c1C(=S)N[C@@H](Cc1ccc(NC(=O)c2c(Cl)cccc2Cl)cc1)C(=O)O` [Example 25, 4-[[(2,6-dichlorophenyl)carbonyl]amino]-N-[(2-ethyl-6-methylphenyl)thioxomethyl]-L-phenylalanine], the IC50 is 6 nM in data set [2] and 101 nM in data set [3].
Regarding `CCc1cccc(C)c1C(=S)N[C@@H](Cc1ccc(N2C(=O)[C@@H](Cc3cccnc3)N(C(C)=O)[C@@H]2c2ccccc2)cc1)C(=O)O` [Example 29, 4-[(2S,4R)-3-acetyl-5-oxo-2-phenyl-4-[(pyridin-3-yl)methyl]imidazolidin-1-yl]-N-[(2-ethyl-6-methylphenyl)thioxomethyl]-L-phenylalanine], in data set [3], the 50% inhibitory concentration (IC50) was 220 nM.
On to `O=C(Nc1ccc(C[C@H](NC(=S)c2ccccc2F)C(=O)O)cc1)c1c(Cl)cccc1Cl` [Example 34, 4-[[(2,6-dichlorophenyl)carbonyl]amino]-N-[(2-fluorophenyl)thioxomethyl]-L-phenylalanine], for which the IC50 in data set [3] is 4180 nM.
In the case of `O=C(Nc1ccc(C[C@H](NC(=S)c2ccccc2C(F)(F)F)C(=O)O)cc1)c1c(Cl)cccc1Cl` [Example 39, 4-[[(2,6-dichlorophenyl)carbonyl]amino]-N-[[2-(trifluoromethyl)phenyl]thioxomethyl]-L-phenylalanine], in data set [3], the IC50 is 784 nM.
In the case of `CS(=O)(=O)CCCCC1(C(=S)N[C@@H](Cc2ccc(NC(=O)c3c(Cl)cccc3Cl)cc2)C(=O)O)CCCC1` [Example 50, 4-[[(2,6-dichlorophenyl)carbonyl]amino]-N-[[1-[4-(methylsulfonyl)butyl]cyclopentyl]thioxomethyl]-L-phenylalanine], the melting point lay in the range of 200 to 202 °C. The IC50 in data set [3] is 30 nM.
`Cc1ccnc(C)c1C(=O)Nc1ccc(C[C@H](NC(=S)C2(CCCCS(C)(=O)=O)CCCC2)C(=O)O)cc1` [Example 53, 4-[[(2,4-dimethylpyridin-3-yl)carbonyl]amino]-N-[[1-[4-(methylsulfonyl)butyl]-cyclopentyllthioxomethyl]-L-phenylalaninetrifluoroacetic acid salt]: the IC50 in data set [3] is 148 nM.
In the case of `CS(=O)(=O)CCCCC1(C(=S)N[C@@H](Cc2ccc(NC(=O)c3c(Cl)cccc3Cl)cc2)C(=O)O)CCC1` [Example 62, 4-[[(2,6-dichlorophenyl)carbonyl]amino]-N-[[1-[4-(methylsulfonyl)-butyl]cyclobutyl]thioxomethyl]-L-phenylalanine], the IC50 in data set [3] was 8 nM.
In turn, `CSCCCC1(C(=S)N[C@@H](Cc2ccc(NC(=O)c3c(Cl)cccc3Cl)cc2)C(=O)O)CCC1` [Example 71, 4-[[(2,6-dichlorophenyl)carbonyl]amino]-N-[[1-[3-(methylthio)propyl]cyclobutyl]-thioxomethyl]-L-phenylalanine] had a melting point of 186 to 188 °C. Besides, the IC50 in data set [3] was 926 nM.
With `CS(=O)(=O)CCCC1(C(=S)N[C@@H](Cc2ccc(NC(=O)c3c(Cl)cccc3Cl)cc2)C(=O)O)CCC1` [Example 78, 4-[[(2,6-dichlorophenyl)carbonyl]amino]-N-[[1-[3-(methylsulfonyl)propyl]cyclobutyl]thioxomethyl]-L-phenylalanine], in data set [3], the half-maximal inhibitory concentration (IC50) is 341 nM.
Turning to `Cc1cc(C(F)(F)F)c(C(=O)Nc2ccc(C[C@H](NC(=S)C3(CCCCS(C)(=O)=O)CCC3)C(=O)O)cc2)c(C)n1` [Example 84], the IC50 in data set [3] was 5.5 nM.

For orientation: IC50 means the point on the concentration scale where inhibition reaches its midpoint. As a reminder, the melting point is the temperature, or range, at which the solid turns liquid.
